Here are results for 14 compounds from ChEMBL document CHEMBL1152200, “Synthesis and biological evaluation of novel sulfonyl-naphthalene-1,4-diols as FabH inhibitors” (Bioorg Med Chem Lett, 2008).

Molecules are shown by their SMILES. Values after ≈ are worked out from the molar mass of the structure shown. Active and inactive are the calls of the source. The calls are words filed in the database; no cut-off is given here.

For orientation: IC50 means the concentration needed to halve the response being measured. As a reminder, the MIC99 is the lowest concentration that inhibits either 99% of growth or 99% of the strains tested, depending on the study.

Assay [1] in a line: Inhibition of Escherichia coli FabH.
Assay [2] has as its target T1, Mycobacterial beta-ketoacyl-[acyl-carrier-protein] synthase III (Mycobacterium tuberculosis, UniProt P9WNG3).
T1 sequence (P9WNG3 whole entry): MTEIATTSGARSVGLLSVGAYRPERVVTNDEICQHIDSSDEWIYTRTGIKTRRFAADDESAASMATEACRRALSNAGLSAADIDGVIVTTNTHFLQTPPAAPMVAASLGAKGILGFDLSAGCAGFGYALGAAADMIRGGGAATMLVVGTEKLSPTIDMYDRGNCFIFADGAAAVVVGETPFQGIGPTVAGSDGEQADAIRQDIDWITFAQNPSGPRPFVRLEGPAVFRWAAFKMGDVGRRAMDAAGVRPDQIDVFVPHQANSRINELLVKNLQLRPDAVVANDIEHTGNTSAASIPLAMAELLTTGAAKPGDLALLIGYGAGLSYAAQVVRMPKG
The experiment in a line: Inhibition of Mycobacterium tuberculosis FabH.

Assay [3] deals with T2, Beta-ketoacyl-ACP-synthase III (Plasmodium falciparum, UniProt O77078).
T2 sequence (O77078 whole entry): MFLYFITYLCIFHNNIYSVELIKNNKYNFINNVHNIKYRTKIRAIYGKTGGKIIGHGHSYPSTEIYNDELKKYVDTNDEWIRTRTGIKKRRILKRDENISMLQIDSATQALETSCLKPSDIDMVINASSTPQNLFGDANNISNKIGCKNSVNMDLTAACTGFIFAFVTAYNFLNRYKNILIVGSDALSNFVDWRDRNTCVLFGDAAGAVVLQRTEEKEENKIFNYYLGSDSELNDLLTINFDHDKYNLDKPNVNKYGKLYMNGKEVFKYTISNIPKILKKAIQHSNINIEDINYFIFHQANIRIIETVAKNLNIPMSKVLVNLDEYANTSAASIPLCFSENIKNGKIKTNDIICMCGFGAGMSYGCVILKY
The experiment in a line: Inhibition of Plasmodium falciparum FabH.

Assay [4] concerns Escherichia coli. The experiment in a line: Antibacterial activity against Escherichia coli tolC mutant. Type of assay: functional.
The next assay has as its system Plasmodium falciparum. The experiment in a line: Antiplasmodial activity against chloroquine-sensitive Plasmodium falciparum D6. The format is functional, organism-based.
Assay [5] concerns Escherichia coli. The experiment in a line: Inhibition of Escherichia coli FabH at below 10 uM.
The target of assay [6] is T3, Beta-ketoacyl-ACP-synthase III (Plasmodium falciparum) (UniProt O77078).
T3 sequence (whole entry): T2 sequence (O77078 whole entry)
The experiment in a line: Inhibition of Plasmodium falciparum FabH at below 100 uM.

Assay [7] deals with Escherichia coli. The experiment in a line: Inhibition of Escherichia coli FabH assessed as restoration activity in presence of phosphate buffer after 16 hrs. Details: scale not given: the % may be the effect or the level left.

As to `O=S(=O)(c1ccccc1)c1cc(O)c2ccccc2c1O`, the figures for the IC50 in assay [1], in assay [2] and in assay [3] were 21.2 nM, 2.84 nM and 279 nM, respectively.

As for `O=C(O)CCS(=O)(=O)c1cc(O)c2ccccc2c1O`, the IC50 turned out to be 96.5 nM in assay [1], 3.53 nM in assay [2] and 46.5 nM in assay [3].

For `CS(=O)(=O)c1cc(O)c2ccccc2c1O`, the IC50 in assay [1] was determined as 87.3 nM; in assay [2], 3.53 nM; in assay [3] it was 27.4 nM. The same compound came in with an MIC99 against Escherichia coli [4] of 9.7 µg/mL (≈ 40.7 µM).

On to `CC(=O)Nc1ccc(S(=O)(=O)c2cc(O)ccc2O)cc1`, for which the IC50 in assay [1] is more than 10000 nM; in the assay on Plasmodium falciparum, 3.96 µg/mL (≈ 12.9 µM); in assay [2] it was 31.4 nM. For the same compound, the result (in the assay on Escherichia coli [5]; in assay [6]) was inactive. In the assay on Escherichia coli [4], the MIC99 was more than 90 µg/mL.

On to `Cc1ccc(SC2=CC(=O)c3ccccc3C2=O)cc1`, for which half-maximal inhibition in assay [2] (IC50) required 112 nM. Also, the outcome (in the assay with Escherichia coli [5]; in assay [6]) was inactive.

Turning to `CC(=O)Nc1ccc(S(=O)(=O)c2cc(O)c3ccccc3c2O)cc1`, the IC50 in assay [1] amounted to 11.8 nM; with Plasmodium falciparum it was 4.98 µg/mL (≈ 13.9 µM); in assay [2], 3.76 nM; in assay [3], 29.6 nM. Moreover, the MIC99 against Escherichia coli [4] came out at 12.3 µg/mL (≈ 34.4 µM).

For `Cc1ccc(S(=O)(=O)c2ccc3ccccc3c2)cc1`, the figures for the IC50 (in assay [1]; in the assay on Plasmodium falciparum; in assay [2]) were more than 10000 nM, 8.74 µg/mL (≈ 31 µM) and 138 nM, respectively. For the same compound, the result (with Escherichia coli [5]; in assay [6]) was inactive. The compound further yielded an MIC99 in the assay on Escherichia coli [4] of more than 90 µg/mL.

Regarding `Cc1ccc(S(=O)(=O)c2cc(O)c3cc4ccccc4cc3c2O)cc1`, the IC50 amounted to 112 nM in assay [1], 8.47 nM in assay [2] and 341 nM in assay [3].

Consider `Cc1ccc(S(=O)(=O)C2=CC(=O)c3ccccc3C2=O)cc1`, for which the IC50 came out at 187 nM in assay [1], 1.99 nM in assay [2] and 1420 nM in assay [3].

For `O=S(=O)(c1ccc2ccccc2c1)c1cc(O)c2ccccc2c1O`, the IC50 is 15.4 nM in assay [1], 1.49 nM in assay [2] and 393 nM in assay [3].

As for `Cc1ccc(S(=O)(=O)c2cc(O)c3ccccc3c2O)cc1`, the IC50 in assay [1] is 13.6 nM; in the assay on Plasmodium falciparum, 7.69 µg/mL (≈ 24.5 µM); in assay [2], 0.61 nM; in assay [3], 73.6 nM. Also, the Activity with Escherichia coli [7] is 90%. In the assay with Escherichia coli [4], the MIC99 was 14.1 µg/mL (≈ 44.9 µM).

`Cc1ccc(S(=O)(=O)c2cc(O)ccc2O)cc1`: the IC50 in assay [1] was more than 10000 nM; with Plasmodium falciparum, 31.3 µg/mL (≈ 119 µM); in assay [2], 34.4 nM. The result (with Escherichia coli [5]; in assay [6]) was inactive. The MIC99 with Escherichia coli [4] was more than 90 µg/mL.

Take `O=S(=O)(c1ccc(Cl)cc1)c1cc(O)c2ccccc2c1O`: the IC50 came to 8.8 nM in assay [1], 3.23 µg/mL (≈ 9.65 µM) with Plasmodium falciparum, 3.61 nM in assay [2] and 129 nM in assay [3].

In the case of `CCCc1ccc(S(=O)(=O)c2cc(O)c3ccccc3c2O)cc1`, the IC50 in assay [1] was found to be 9.7 nM; in assay [2] it was 3.09 nM; in assay [3], 72.6 nM.
